Test results taken from US20240091172A1, “DRUG FOR ANTAGONIZING REPLICATION OF PORCINE REPRODUCTIVE AND RESPIRATORY SYNDROME VIRUS AND APPLICATION THEREOF” (NANJING AGRICULTURAL UNIVERSITY, priority 2019, published 2024).

What was measured:
[1] = test system: PRRSV; assay: Natural product drug library screening, PRRSV infection of Marc-145 cells; format: cell-based, porcine reproductive and respiratory syndrome virus; conditions: for inhibitory effects on PRRSV: second round hits
Experimental: Marc-145 cells were treated with 10 μM of natural products and then infected with PRRSV. In the first round of screening, 24 compounds (6.21%) had no obvious cytotoxicity to Marc-145 cells and could reduce PRRSV-induced CPE by 50% (FIG. 1A).

[2] = test system: PRRSV; assay: Anti-PRRSV activity of xanthohumol derivatives on Marc-145; format: cell-based, porcine reproductive and respiratory syndrome virus
[3] = test system: Marc-145 cells; assay: Cytotoxicity to Marc-145 cells (CCK8, CC50); format: cell-based
Experimental: (§1) Cell viability was detected with the enhanced CCK8 kit. The concentration (CC50) at which Xn was cytotoxic to 50% of the cells was calculated using GraphPad Prism 7.0 software. DMSO was used as a negative control.
(§2) Further, the inhibitory efficiency of Xn on PRRSV in Marc145 cells was detected by indirect immunofluorescence. […] To further determine the dose range of Xn with the anti-PRRSV activity, Marc-145 cells were treated with 5 μM, 10 μM, and 15 μM Xn respectively, and then infected with PRRSV (0.01 MOI).

[4] = Cytotoxicity (CC50) in PAMs cells; format: cell-based, porcine; conditions: pig
[5] = Cytotoxicity to Marc-145 cells (CCK8, CC50); format: cell-based; conditions: African green monkey, Marc-145 cells; Marc145 cells, CCK8 cytotoxicity assay
Experimental: as §1, §2

[6] = test system: IL-1β, IL-6, IL-8 and TNF-α mRNA; assay: PRRSV- or LPS-induced inflammatory reaction in Marc-145 cells (qRT-PCR); format: cell-based
Experimental: (§3) Cellular RNAs were extracted following the operation instructions of an OMEGA RNA virus extraction kit. […] Relative fluorescence quantification was performed after reverse transcription, and the primer sequences used were as follows:
(§4) According to the method of 2-ΔΔCt, the relative content of mRNA of each gene in a sample was calculated with a CT value.
(§5) Marc-145 cells and PAM cells were inoculated with 0.1 MOI PRRSV and incubated at 37° C. for 1 h. The nutrient solution was replaced with DMEM-2% FBS containing Xn (or DMSO), and 24 h post infection, cellular RNAs were extracted. A positive control group was set up: Marc-145 cells and PAMs were treated with 10 μg/mL LPS (or DMEM) for 1 h; the cell surface was washed 3 times with PBS; 2% FBS-DMEM containing Xn (or DMSO) was added; and after 6 h, the cells were collected, RNAs were extracted, and the mRNA levels of IL-1β, IL-6, IL-8 and TNF-α were detected by qRT-PCR. The results are shown in FIG. 6 (Marc-145) and FIG. 7 (PAM cells).

[7] = test system: IL-1β, IL-6, IL-8 and TNF-α mRNA; assay: PRRSV- or LPS-induced inflammatory reaction in PAM cells (qRT-PCR); format: cell-based, porcine
Experimental: as §3, §4, §5

[8] = test system: PRRSV; assay: IC50 against PRRSV in Marc145 cells by indirect immunofluorescence; format: cell-based; conditions: Porcine reproductive and respiratory syndrome virus
Experimental: (§6) Xn of different concentrations was added to a PAMs medium (1-30 μM), and a DMSO negative control group was set up. Cells were inoculated with PRRSV (0.01 MOI) and incubated at 37° C. for 30 h, and the cell supernatant was pipetted and discarded. The cells were fixed with 4% (volume ratio) paraformaldehyde for 15 min, permeabilized with 0.1% (volume ratio) Triton X-100 for 30 min, and washed 3 times with PBS for 3 min each time. A PRRSV N protein monoclonal antibody (2H7) at a dilution of 1:1000 was added, and the cells were incubated at 37° C. for 1 h, and washed 3 times with PBST for 3 min each time. Alexa Fluor 594 goat anti-mouse IgG at a dilution of 1:1000 was added, and the cells were incubated at 37° C. for 45 min. The nuclei were stained with DAPI for 10 min at room temperature. Three photos were recorded randomly with a Nikon A1 confocal microscope. The fluorescence intensity was measured by ImageJ software. Finally, the 50% inhibitory concentration (IC50) of Xn against PRRSV was calculated by GraphPad Prism 7.0 software, and the results were recorded.
as §2

[9] = test system: PRRSV; assay: IC50 against PRRSV in PAMs by immunofluorescence; format: cell-based; conditions: Porcine reproductive and respiratory syndrome virus; PAMs cells
Experimental: as §6

[10] = test system: PRRSV; assay: PRRSV replication in Marc-145 cells (TCID50, ORF7 mRNA, CPE/IFA, Western blot); format: cell-based, porcine reproductive and respiratory syndrome virus
Experimental: (§7) Marc-145 cells were cultured in a 96-well plate. When the cell confluence reached 70%, a nutrient solution was pipetted and discarded, and the cell surface was washed 3 times with PBS. Ten-fold serially diluted PRRSV was added to the cells and the cells were incubated at 37° C. for 1 h. The medium was replaced with fresh 2% FBS-DMEM. Virus titers were determined 5 days post-inoculation (dpi) using end-point dilution analysis. The 50% cell infectious dose (TCID50) was calculated by the Reed-Muench method.
as §3, §4, §2

[11] = test system: PRRSV; assay: Stage experiment of drug (pre-, co-, post-treatment) in PAMs; format: cell-based, porcine reproductive and respiratory syndrome virus; conditions: 24 hpi
Experimental: Xn treatment time and PRRSV infection time are shown on the timeline in FIG. 5A. PAMs were inoculated into a 24-well plate, and after complete sedimentation, the time was set as −1 h. 10 μM Xn was added to a pretreatment group (Pre) at −1 h; and at 0 h; cells were inoculated 0.1 moi PRRSV and incubated at 37° C. for 1 h; the virus-containing cell culture was replaced with 2% FBS-DMEM; and the cells were cultured at 37° C. for 24 h. Xn was added to the cells in a co-treatment group (Co) at 0 h; the cells were inoculated with 0.1 moi PRRSV, and incubated at 37° C. for 1 h; the virus-containing cell culture was replaced with 2% FBS-DMEM; and the cells were cultured at 37° C. for 24 h. A post-treatment group (Post) was inoculated with 0.1 moi PRRSV at 0 h; the culture was discarded at 1 h and replaced with 2% FBS-DMEM containing 10 μM Xn; and the cells were cultured at 37° C. for 24 h.
PAMs were treated with Xn before, during and after PRRSV infection (FIG. 5A). Cell samples were collected at 24 hpi for detection of PRRSV N protein and PRRSV ORF7 mRNA by Western blot and qRT-PCR respectively, and the cell supernatant was collected for virus titer determination.

[12] = test system: PRRSV; assay: PRRSV replication in PAM cells (N protein, ORF7 mRNA, titer, different strains); format: cell-based, porcine reproductive and respiratory syndrome virus
Experimental: as §7, §3
The results are shown in FIGS. 4A-D. In PAM, Xn could inhibit the replication of different genetic subtypes of PRRSV strains in the viral ORF7 gene and protein levels, and reduce the viral infection titer.

[13] = test system: PRRSV BB0907 strain; assay: Piglet treatment experiment after PRRSV infection; format: in vivo, piglets; conditions: for virus level in the serum vs virus-infected positive control group: 4-14 dpi
[14] = Marc-145, 5, 10, 15 μM Xn, 0.01 MOI, 24, 36, 48 hpi
[15] = PAM cells, dose-dependent manner

For `COc1cc(/C=C/C(=O)CC(=O)/C=C/c2ccc(O)c(OC)c2)ccc1O` [curcumin], the “inhibitory effects on PRRSV” value [1] was “dose-dependent inhibitory effects”.
With `COc1cc(O)cc(O)c1C(=O)/C=C/c1cccc([N+](=O)[O-])c1` [Xn-5] the antiviral ability ([2]; low concentrations) was “did not have antiviral ability” and the cytotoxicity ([3]; low concentrations) was “highly cytotoxic”.
In the case of `COc1cc(O)c(CC=C(C)C)c(O)c1C(=O)/C=C/c1ccc(O)cc1` [Xn, xanthohumol], the CC50 [4] is reported as 42.6 µM, the CC50 at 48 h [5] is reported as 62.5 µM and the “CC50, comparison among the 5 screened compounds” value ([3]; Marc-145 cells) is reported as “highest”. The “mRNA expressions of IL-1β, IL-6, IL-8 and TNF-α induced by LPS” value ([6]; Marc-145, 10 μg/mL LPS, 6 h, dose-dependent) was “effectively reduce”, the “mRNA expressions of IL-1β, IL-6, IL-8 and TNF-α induced by PRRSV” value ([6]; Marc-145, 0.1 MOI PRRSV, 24 h post infection, dose-dependent) was “effectively reduce” and the “intracellular inflammatory factors, Xn control treatment” value ([6]; Marc-145, Xn alone) was “did not cause changes”. The “mRNA expressions of IL-1β, IL-6, IL-8 and TNF-α induced by LPS” value ([7]; 10 μg/mL LPS, 6 h, dose-dependent) was “effectively reduce”, the “mRNA expressions of IL-1β, IL-6, IL-8 and TNF-α induced by PRRSV” value ([7]; 0.1 MOI PRRSV, 24 h post infection, dose-dependent) was “effectively reduce” and the “intracellular inflammatory factors, Xn control treatment” value ([7]; Xn alone) was “did not cause changes”. The “IC50, comparison among the 5 screened compounds” value [1] was “lowest”, the “selectivity index, comparison among the 5 screened compounds” value [1] was “highest” and the “inhibitory effects on PRRSV” value [1] was “dose-dependent inhibitory effects”. The IC50 [8] was 2370 nM, the IC50 [9] was 7.05 µM and the “replication of the three PRRSV strains (Western blot)” value ([10]; Marc-145) was “effectively reduce”. For the same compound, the “number of infected cells (CPE and IFA) vs negative control group” value ([10]; Marc-145, 48 hpi) was “significantly less”, the “ORF7 mRNA level” value [10, 14] was “dose-dependent decrease” and the “viral titers (TCID50 of PRRSV)” value [10, 14] was “dose-dependent decrease”. The “level of PRRSV replication (N protein, ORF7 mRNA, virus titer)” value (“level of PRRSV replication” for short) ([11]; 10 μM Xn co-treatment (Co)) was “inhibited the virus to a lower degree”, the “level of PRRSV replication” value ([11]; 10 μM Xn post virus infection (Post)) was “significantly reduced” and the “level of PRRSV replication” value ([11]; 10 μM Xn pretreatment (Pre)) was “inhibited the virus to a lower degree”. For the same compound, the “replication of different genetic subtypes of PRRSV strains (ORF7 gene and protein levels)” value ([12]; PAM) was “inhibit”, the “level of PRRSV N protein” value [12, 15] was “decreased” and the “level of viral mRNA” value [12, 15] was “decreased”. For the same compound, the viral infection titer ([12]; PAM, different genetic subtypes of PRRSV strains) was “reduce”.
For `COc1cc(OC)c(C(=O)/C=C/c2ccc(O)cc2)c(OC)c1` [Xn-2], the “anti-PRRSV activity on Marc-145” value ([2]; 0-50 uM) was “inhibitory effects”.
With `Oc1c(Cl)cc(Cl)c2cccnc12` [chloroxine, reference compound] the “inhibitory effects on PRRSV” value [1] was “dose-dependent inhibitory effects”.
In the case of `COc1cc(O)c(C(=O)/C=C/c2ccc(O)cc2)c(OC)c1` [Xn-4], the pigs died ([13]; 10 mg/kg intramuscular, 5 per group, death at 10 dpi) is reported as 1, the “rectal temperature of the piglets” value ([13]; 10 mg/kg intramuscular, 14 days post infection) is reported as “increased” and the “virus level in the serum vs virus-infected positive control group” value ([13]; 10 mg/kg, P<0.05) is reported as “significantly lower”. The “lung pathological change scores vs positive control group” value ([13]; 10 mg/kg, 14 dpi, P<0.05) was “significantly lower”, the “clinical fever and clinical symptoms” value ([13]; 20 mg/kg intramuscular, days 0-14) was “no clinical fever or obvious clinical symptoms” and the survival ([13]; 20 mg/kg intramuscular, during the experiment) was “all were healthy and alive”. The “copy number of the PRRSV genome in the nasal swabs vs positive control group” value ([13]; 20 mg/kg, 4-10 dpi) was “significantly lower”, the “virus level in the serum vs virus-infected positive control group” value ([13]; 20 mg/kg, P<0.05) was “significantly lower” and the “PRRSV viral load in the lungs vs control group” value ([13]; 20 mg/kg, 14 dpi, P<0.05) was “significantly lower”. The “lung pathological change scores vs positive control group” value ([13]; 20 mg/kg, 14 dpi, P<0.05) was “significantly lower”, the “inflammatory factors IL-1β, IL-6, IL-8 and TNF-α mRNA in the lung tissue” value ([13]; 5, 10, 20 mg/kg, qRT-PCR) was “decreased in a dose-dependent manner” and the “anti-PRRSV activity on Marc-145” value ([2]; 0-50 uM) was “inhibitory effects”. For the same compound, the “anti-PRRSV effect, ranking among the three compounds” value ([2]; 0-50 uM, Marc-145) was “best effect” and the “concentration with an obvious antiviral effect” value ([2]; Marc-145) was 15 µM.
